Test results: publication PMC6173406, “Design and evaluation of selective butyrylcholinesterase inhibitors based on Cinchona alkaloid scaffold” (PLoS ONE, 2018)
Read-outs that look alike come from different tables or passages of the source.

Experiments:
[1] = target: T1, human BChE (Homo sapiens, UniProt P06276); experiment: Reversible inhibition of human BChE, Ellman method with ATCh, Hunter-Downs analysis; format: biochemical; design: key to BChE type of inhibition: c, n and m stands for competitive, noncompetitive and mixed type of inhibition; c, n and m stands for competitive, noncompetitive and mixed type of inhibition; c, n and m stands for competitive, noncompetitive and mixed type of inhibition; conditions: for BChE Ks: enzyme-substrate (ATCh) dissociation constant derived from the inhibition kinetics with the compound; for Ki(AChE)/ Ki (BChE): inhibition selectivity, ratio of Ki constants for AChE and BChE; for BChE inhibition potency compared to CD-Met: fold more potent than CD-Met
T1 construct: gift of Dr. F. Nachon (Département de Toxicologie, Armed Forces Biomedical Research Institute, France)
Protocol: (§1) Purified human BChE and recombinant human AChE were kindly provided by Dr. F. Nachon (Département de Toxicologie, Armed Forces Biomedical Research Institute, France). The concentration of enzymes (BChE: 5.6 μM; AChE: 0.20 μM) was determined as described previously. The concentrated stocks of enzymes were diluted in a phosphate sodium buffer 0.1 M (pH 7.4) containing 0.1% BSA.
(§2) Enzyme activities were measured spectrophotometrically by Ellman method at 412 nm using 0.30 mM DTNB as thiol reagent and ATCh (0.050–0.50 mM) as substrate in 0.1 M phosphate buffer, pH 7.4 [29, 30]. For the inhibition, the reaction mixture also contained cinchonidines or cinchonines (final concentrations 0.020–200 μM, depending on compound). In the case of compounds CD-(pCl) and CN-(pCl), the final content of DMSO was the same in enzyme activity measurement and in inhibition measurements, up to 0.32%. No side interactions of tested compounds with ATCh or DTNB were detected. Measurements were done at 25 °C on a Tecan Infinite M200Pro plate reader (Austria).
(§3) The reversible inhibition of BChE and AChE by cinchonines and cinchonidines was measured by determining the decrease of enzyme activity towards ATCh (0.050–0.50 mM) in their presence. The activities of the enzymes were measured at different substrate concentrations ([S]) in the absence (v0) and presence (vi) of given cinchonines and cinchonidines concentration ([I]) selected to inhibit the enzymes for 20–80%. At least three concentrations of inhibitors for each substrate concentration were used in at least two experiments. The apparent dissociation inhibition constant (Ki,app) was calculated using the Hunter-Downs equation and the linear regression analysis: Ki,app=vi/v0−vi⋅[I]=K(I)+K(I)/K(S)⋅[S] where y-intercept determines the enzyme-inhibitor dissociation constants (K(I)), while x-intercept determines the enzyme-substrate dissociation constant, K(S). The equation was used with the assumption that the substrate, due to relatively low substrate concentrations used in experiments, binds only to the catalytic site, while inhibitor can bind to both sites catalytic and peripheral site. In other words, if the inhibitor competes with substrate for binding to the catalytic site of the enzyme, Ki,app proportionally depend on the substrate concentration. […] The curve means that the inhibitor binds not only to the catalytic or peripheral site but also to intermediates of Michaelis type of the enzyme-substrate complex.

[2] = target: T2, human AChE (Homo sapiens, UniProt P22303); experiment: Reversible inhibition of human AChE, Ellman method with ATCh, Hunter-Downs analysis; format: biochemical; design: key to AChE type of inhibition: c, n and m stands for competitive, noncompetitive and mixed type of inhibition; c, n and m stands for competitive, noncompetitive and mixed type of inhibition; c, n and m stands for competitive, noncompetitive and mixed type of inhibition; conditions: for Ki: enzyme-inhibitor dissociation constant ± standard error, ATCh 0.050–0.50 mM, pH 7.4, 25 °C; for AChE Ks: enzyme-substrate (ATCh) dissociation constant derived from the inhibition kinetics with the compound; for AChE type of inhibition: symbol in brackets after Ki
T2 construct: gift of Dr. F. Nachon (Département de Toxicologie, Armed Forces Biomedical Research Institute, France)
Protocol: as §1, §2, §3

[3] = enzyme-inhibitor dissociation constant ± standard error, ATCh 0.050–0.50 mM, pH 7.4, 25 °C
[4] = substrate concentrations higher than 0.35 mM, deviation from linearity in Hunter-Downs plot

T2 sequence (P22303 32-614): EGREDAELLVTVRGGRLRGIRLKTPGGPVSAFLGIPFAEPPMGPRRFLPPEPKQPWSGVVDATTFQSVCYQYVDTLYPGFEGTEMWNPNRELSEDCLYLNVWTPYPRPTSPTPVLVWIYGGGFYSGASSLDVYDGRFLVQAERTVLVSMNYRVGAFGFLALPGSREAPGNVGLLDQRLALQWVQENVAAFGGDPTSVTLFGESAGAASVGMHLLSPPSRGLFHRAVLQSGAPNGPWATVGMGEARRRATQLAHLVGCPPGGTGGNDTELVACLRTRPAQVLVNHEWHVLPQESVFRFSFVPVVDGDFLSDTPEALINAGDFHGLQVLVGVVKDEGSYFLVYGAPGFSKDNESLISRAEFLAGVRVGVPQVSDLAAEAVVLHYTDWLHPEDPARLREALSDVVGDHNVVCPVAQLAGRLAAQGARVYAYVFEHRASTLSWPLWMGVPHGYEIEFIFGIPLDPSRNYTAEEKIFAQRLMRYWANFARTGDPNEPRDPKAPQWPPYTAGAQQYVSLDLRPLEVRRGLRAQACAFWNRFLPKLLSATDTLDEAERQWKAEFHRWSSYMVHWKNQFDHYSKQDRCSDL
T1 sequence (P06276 29-602): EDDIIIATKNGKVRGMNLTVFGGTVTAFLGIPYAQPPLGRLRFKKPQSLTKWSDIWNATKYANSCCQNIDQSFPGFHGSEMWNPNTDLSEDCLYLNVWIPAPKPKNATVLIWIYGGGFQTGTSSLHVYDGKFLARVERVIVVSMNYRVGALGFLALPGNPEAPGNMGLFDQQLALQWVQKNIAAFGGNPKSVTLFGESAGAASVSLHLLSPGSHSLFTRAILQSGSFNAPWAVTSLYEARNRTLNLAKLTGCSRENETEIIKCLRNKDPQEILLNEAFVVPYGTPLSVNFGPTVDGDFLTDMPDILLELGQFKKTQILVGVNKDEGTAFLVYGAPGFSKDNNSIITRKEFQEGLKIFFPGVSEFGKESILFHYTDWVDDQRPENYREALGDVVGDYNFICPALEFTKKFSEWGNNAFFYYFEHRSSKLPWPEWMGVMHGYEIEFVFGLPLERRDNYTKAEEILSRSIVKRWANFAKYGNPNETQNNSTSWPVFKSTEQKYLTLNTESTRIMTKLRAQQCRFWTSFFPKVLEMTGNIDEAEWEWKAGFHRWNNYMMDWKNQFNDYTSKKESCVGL

C=CC1C[N+]2(Cc3cccc([N+](=O)[O-])c3)CCC1CC2C(O)c1ccnc2ccccc12 (stereo not drawn) [CN-(mNO2)]
Ki [1, 3]: 4.2 ± 0.3 µM | BChE Ks [1]: 0.35 ± 0.04 mM | Ki(AChE)/ Ki (BChE) [1]: 2.1 | BChE type of inhibition ([1]; symbol in brackets after Ki): m | Ki [2]: 8.6 ± 0.5 µM | AChE Ks [2]: 0.72 ± 0.10 mM | AChE type of inhibition [2]: m

C=CC1C[N+]2(Cc3ccc(Cl)cc3)CCC1CC2C(O)c1ccnc2ccccc12 (stereo not drawn) [CN-(pCl)]
Ki [1, 3]: 6.2 ± 0.8 µM | BChE Ks [1]: 0.49 ± 0.12 mM | Ki(AChE)/ Ki (BChE) [1]: 6.4 | BChE type of inhibition [1, 4]: mixed inhibition | BChE type of inhibition ([1]; symbol in brackets after Ki): m | Ki [2]: 40 ± 4 µM | AChE type of inhibition [2]: n

C=CC1C[N+]2(Cc3ccc(Br)cc3)CCC1CC2C(O)c1ccnc2ccccc12 (stereo not drawn) [CN-(pBr)]
Ki [1, 3]: 3.5 ± 0.3 µM | BChE Ks [1]: 0.44 ± 0.07 mM | Ki(AChE)/ Ki (BChE) [1]: 8.8 | BChE type of inhibition ([1]; symbol in brackets after Ki): c | Ki [2]: 31 ± 1 µM | AChE Ks [2]: 2.7 ± 0.9 mM | AChE type of inhibition [2]: m

C=CC1C[N+]2(Cc3ccccc3)CCC1CC2C(O)c1ccnc2ccccc12 (stereo not drawn) [CD-Bzl]
Ki [1]: ≤ 0.1 µM | Ki [1, 3]: 0.075 ± 0.007 µM | BChE Ks [1]: 0.27 ± 0.03 mM | Ki(AChE)/ Ki (BChE) [1]: 200 | BChE type of inhibition ([1]; symbol in brackets after Ki): c | Ki [2]: 15 ± 2 µM | AChE Ks [2]: 0.78 ± 0.3 mM | AChE type of inhibition [2]: m

C=CC1C[N+]2(Cc3cccc(C)c3)CCC1CC2C(O)c1ccnc2ccccc12 (stereo not drawn) [CN-(mCH3), N-(3-methylbenzyl) cinchoninium bromide]
Ki [1, 3]: 4.6 ± 0.4 µM | BChE Ks [1]: 0.53 ± 0.00 mM | Ki(AChE)/ Ki (BChE) [1]: 11 | BChE type of inhibition ([1]; symbol in brackets after Ki): m | Ki [2]: 49 ± 2 µM | AChE Ks [2]: 0.66 ± 0.06 mM | AChE type of inhibition [2]: m

C=CC1C[N+]2(Cc3ccccc3)CCC1CC2C(O)c1ccnc2ccccc12 (stereo not drawn) [CN-Bzl]
Ki [1, 3]: 2.9 ± 0.3 µM | BChE Ks [1]: 0.29 ± 0.04 mM | Ki(AChE)/ Ki (BChE) [1]: 42 | BChE type of inhibition ([1]; symbol in brackets after Ki): c | AChE affinity lower than for the highest-affinity compounds ([2]; compared to CD-(mNO2) and CD-(mCH3)): ~50 times | Ki [2]: 121 ± 12 µM | AChE Ks [2]: 1.1 ± 0.4 mM | AChE type of inhibition [2]: m

C=CC1C[N+]2(Cc3ccc(Br)cc3)CCC1CC2C(O)c1ccnc2ccccc12 (stereo not drawn) [CD-(pBr), N-para-bromobenzyl cinchonidinium bromide]
Ki [1]: ≤ 0.1 µM | Ki [1, 3]: 0.038 ± 0.005 µM | BChE Ks [1]: 0.34 ± 0.07 mM | BChE inhibition potency compared to CD-Met [1]: 700 times | Ki(AChE)/ Ki (BChE) [1]: 510 | BChE binding preference para- over meta-positioned substituent ([1]; para compound compared to meta compound): 16 times | BChE stereoselectivity Ki(CN/CD) ([1]; ratio of Ki of cinchonine to Ki of the pseudo-enantiomeric cinchonidine): 92 | BChE type of inhibition ([1]; symbol in brackets after Ki): c | Ki [2]: 19 ± 1 µM | AChE Ks [2]: 2.2 ± 0.524 mM | AChE type of inhibition [2]: m

C=CC1C[N+]2(Cc3ccc(C)cc3)CCC1CC2C(O)c1ccnc2ccccc12 (stereo not drawn) [CD-(pCH3)]
Ki [1, 3]: 0.17 ± 0.02 µM | BChE Ks [1]: 0.38 ± 0.06 mM | Ki(AChE)/ Ki (BChE) [1]: 99 | BChE type of inhibition [1, 4]: mixed inhibition | BChE type of inhibition ([1]; symbol in brackets after Ki): m | Ki [2]: 16 ± 1 µM | AChE Ks [2]: 1.3 ± 0.2 mM | AChE type of inhibition [2]: c

C=CC1C[N+]2(Cc3cccc(Br)c3)CCC1CC2C(O)c1ccnc2ccccc12 (stereo not drawn) [CN-(mBr)]
Ki [1, 3]: 2.3 ± 0.2 µM | BChE Ks [1]: 0.48 ± 0.09 mM | Ki(AChE)/ Ki (BChE) [1]: 17 | BChE type of inhibition ([1]; symbol in brackets after Ki): m | Ki [2]: 39 ± 2 µM | AChE Ks [2]: 0.73 ± 0.08 mM | AChE type of inhibition [2]: m

C=CC1C[N+]2(Cc3ccc([N+](=O)[O-])cc3)CCC1CC2C(O)c1ccnc2ccccc12 (stereo not drawn) [CD-(pNO2)]
Ki [1, 3]: 6 ± 0.5 µM | BChE Ks [1]: 0.38 ± 0.05 mM | BChE inhibition potency compared to CD-Met [1]: only five times higher | Ki(AChE)/ Ki (BChE) [1]: 5.9 | BChE type of inhibition ([1]; symbol in brackets after Ki): c | Ki [2]: 36 ± 2 µM | AChE type of inhibition [2]: n

C=CC1C[N+]2(Cc3cccc([N+](=O)[O-])c3)CCC1CC2C(O)c1ccnc2ccccc12 (stereo not drawn) [CD-(mNO2), N-(3-nitrobenzyl) cinchonidinium bromide]
Ki [1, 3]: 4.7 ± 0.4 µM | BChE Ks [1]: 0.62 ± 0.1 mM | BChE inhibition potency compared to CD-Met [1]: only five times higher | BChE type of inhibition ([1]; symbol in brackets after Ki): m | Ki [2]: 2.5 ± 0.2 µM | AChE Ks [2]: 1.0 ± 0.2 mM | AChE type of inhibition [2]: c
